The test system of data set [1] is gram-positive bacteria such as Staphylococcus, Streptococcus, Diplococcus. Put plainly: in vitro antibacterial activity on gram-positive bacteria, tube dilution method. Type of data set: cell-based. Particulars: result in words. The text has this:
(§1) The in vitro antibacterial activities were compared with 6-ethyl-2,3,6,9-tetrahydro-3-methyl-2,9-dioxothiazolo[5,4-f]quinoline-8-carboxylic acid (hereinafter Compound (D)) and nalidixic acid (hereinafter Compound (E)) using the tube dilution method.
The antibacterial spectrum of 3-benzyl-6-benzyloxy-2,3,6,9-tetrahydro-2,9-dioxothiazolo[5,4-f]quinoline- 8-carboxylic acid (hereinafter Compoud (B)) is different from the other compounds.

For data set [2], the system named is Diplococcus pneumoniae Newfeld. The experiment in a line: in vitro antibacterial activity, tube dilution method. Type of data set: cell-based. Particulars: Streptococcus pneumoniae, read-out: In vitro Antibacterial Activities.
Source text: as §1

The subject of data set [3] is Proteus vulgaris HX-19. Described as above. It is filed as cell-based.
Source text: as §1

Data set [4] concerns Escherichia coli NIHJ. The description is as above. It is filed as cell-based. Particulars: read-out: In vitro Antibacterial Activities.
Source text: as §1

For data set [5], the system named is Staphylococcus albus 1200 A. The description is as above. It is filed as cell-based. Particulars: read-out: In vitro Antibacterial Activities.
Source text: as §1

Data set [6] deals with Klebsiella pneumoniae PCI 602. Described as above. It is filed as cell-based.
Source text: as §1

For data set [7], the system named is Pseudomonas aeruginosa 104. The data set is described as above. Type of data set: cell-based.
Source text: as §1

Data set [8] relates to Streptococcus hemolyticus A-1. Described as above. Type of data set: cell-based. Particulars: Streptococcus pyogenes, A1, read-out: In vitro Antibacterial Activities.
Source text: as §1

Data set [9] relates to Bacillus subtilis PCI 219. The data set is described as above. It is filed as cell-based. Particulars: PCI219, read-out: In vitro Antibacterial Activities.
Source text: as §1

In data set [10] the test system is Proteus mirabilis GN-2425. The description is as above. It is filed as cell-based.
Source text: as §1

Data set [11] concerns Staphylococcus aureus 209-P. The description is as above. Type of data set: cell-based. Particulars: read-out: In vitro Antibacterial Activities.
Source text: as §1

For data set [12], the system named is Sarcina lutea PCI 1001. The description is as above. Type of data set: cell-based. Particulars: Micrococcus luteus, PCI1001, read-out: In vitro Antibacterial Activities.
Source text: as §1

The test system of data set [13] is gram-negative bacteria. Put plainly: in vitro antibacterial activity on gram-negative bacteria, tube dilution method. Type of data set: cell-based. Particulars: for antibacterial activities on gram-negative bacteria: tube dilution method, result in words.
Source text: as §1

Data set [14] can be described thus: urinary excretion in fasting rats after a single oral dose. It is filed as in vivo. Particulars: single oral dose of 50 mg/kg. How it is done: Urinary excretions in fasting rats after a single oral dose of 50 mg/kg were also examined.
Compound (A) was excreted in the urine about 7 times faster than Compound (D). Recovery rates of Compound (A) in the urine were 2.0% after 24 hours.

A short description of data set [15]: concentrations in serum of mice after a single oral dose. It is filed as in vivo. Particulars: single oral dose of 50 mg/kg. As for the experimental part:
[…] concentrations in serum of Compound (A) and Compound (D) were determined in the mice after a single oral dose of 50 mg/kg. […] The peak value for Compound (A) was about 12 times higher than that of Compound (D).

Data set [16] deals with Escherichia coli No. 37. The experiment in a line: in vivo protection of infected mice, oral. Particulars: intraperitoneal infection, oral 1 hour and 6 hours after infection, E. coli No. 37. How it is done:
(§2) The mice were inoculated intraperitoneally with the test organisms in 5% gastric mucin. The test compounds were suspended in 0.5% carboxymethylcellulose and administered orally 1 hour and 6 hours after infection.

For data set [17], the system named is Proteus mirabilis GN-2425. Put plainly: in vivo protection of infected mice, oral. Particulars: for ED50: Proteus mirabilis, GN2425, intraperitoneal infection, oral 1 hour and 6 hours after infection, P. mirabilis GN-2425. As for the experimental part: as §2
Data set [18] relates to Escherichia coli No. 34. The experiment in a line: in vivo protection of infected mice, oral. Particulars: for ED50: Escherichia coli, intraperitoneal infection, oral 1 hour and 6 hours after infection, E. coli No. 34. How it is done: as §2
The nature of data set [19]: preliminary toxicity in rats, 9 days oral. Type of data set: in vivo, female rats of Spraugue-Dewlty-SLC strain. Particulars: 1000 to 2000 mg/kg/day orally for 9 days. As for the experimental part:
To 6-week old female rats of Spraugue-Dewlty-SLC strain, 1000 to 2000 mg/kg/day of Compound A were administered orally for 9 days.

For data set [20] the following is noted: prior art statement in words; cited from earlier work.
For data set [21] the following is noted: prior art statement in words; cited from earlier work. The source holds these as a separate data set.
In data set [22] the test system is organism tested. Put plainly: in vivo protection of infected mice, organisms tested overall. Particulars: oral, result in words. As for the experimental part:
as §2

Data set [23] concerns Trichophyton rubrum and Aspergillus niger. Put plainly: antifungal activity on Sabourand agar, fungi tested overall. Type of data set: cell-based. As for the experimental part:
(§3) The activities of ethyl 2,9-dichlorothiazolo[5,4-f]quinoline-8-carboxylate-6-oxide (Compound (F)) on Trichophyton rubrum and Aspergillus niger were tested on Sabourand agar. […] The minimum inhibitory concentrations were 0.78 mcg/ml for Trichophyton rubrum and 25 mcg/ml for Aspergillus niger.

Data set [24] concerns Trichophyton rubrum. The experiment in a line: antifungal activity on Sabourand agar. Particulars: read-out: minimum inhibitory concentration. It is filed as cell-based. As for the experimental part: as §3
In data set [25] the test system is Aspergillus niger. Put plainly: antifungal activity on Sabourand agar. Type of data set: cell-based. Particulars: read-out: minimum inhibitory concentration. How it is done: as §3
The mark [26] stands for this setting: HX19, Proteus vulgaris HX-19, tube dilution method, read-out: In vitro Antibacterial Activities.
[27] abbreviates: Escherichia coli NIHJ, tube dilution method.
Setting [28] is: PCI602, Klebsiella pneumoniae PCI 602, tube dilution method, read-out: In vitro Antibacterial Activities.
The mark [29] stands for this setting: Pseudomonas aeruginosa 104, tube dilution method, read-out: In vitro Antibacterial Activities.
[30] abbreviates: GN2425, Proteus mirabilis GN-2425, tube dilution method, read-out: In vitro Antibacterial Activities.
Setting [31] is: Staphylococcus aureus 209-P, tube dilution method.

Values after ≈ are worked out from the molar mass of the structure shown. Read-outs that look alike come from different tables or passages of the source.

For the molecule `O=C(O)c1cn(OCc2ccccc2)c2ccc3c(sc(=O)n3Cc3ccccc3)c2c1=O` [B, 3-benzyl-6-benzyloxy-2,3,6,9-tetrahydro-2,9-dioxothiazolo[5,4-f]quinoline-8-carboxylic acid], the “inhibitory activity on gram-positive bacteria” value in data set [1] is recorded as “exhibited inhibitory activity on gram-positive bacteria”. Also, the MIC in [2] was 1.56 µg/mL (≈ 3.4 µM); in data set [3] (setting [26]) it was > 200 µg/mL; in data set [4] (setting [27]), > 200 µg/mL; in data set [5], 3.13 µg/mL (≈ 6.83 µM); in [6] (setting [28]), > 200 µg/mL; in data set [7] (setting [29]), > 200 µg/mL. Moreover, the MIC in [8] was 1.56 µg/mL (≈ 3.4 µM); in data set [9], 0.78 µg/mL (≈ 1.7 µM); in data set [10] (setting [30]), > 200 µg/mL; in data set [11] (setting [31]), 1.56 µg/mL (≈ 3.4 µM); in data set [12] it was 1.56 µg/mL (≈ 3.4 µM).

On to `C=CCOn1cc(C(=O)O)c(=O)c2c3sc(=O)n(CC=C)c3ccc21` [C, 2,3,6,9-tetrahydro-3-allyl-6-allyloxy-2,9-dioxothiazolo[5,4-f]quinoline-8-carboxylic acid], for which the MIC in data set [3] (setting [26]) was 3.13 µg/mL (≈ 8.73 µM); in [4] (setting [27]) it was 100 µg/mL (≈ 279 µM); in data set [6] (setting [28]) it was 200 µg/mL (≈ 558 µM); in [7] (setting [29]), > 200 µg/mL; in data set [10] (setting [30]) it was > 200 µg/mL; in data set [11] (setting [31]), 50 µg/mL (≈ 140 µM). Moreover, in data set [13], the “antibacterial activities on gram-negative bacteria” value was “showed antibacterial activities on gram-negative bacteria”.

Consider `COn1cc(C(=O)O)c(=O)c2c3sc(=O)n(C)c3ccc21` [Compound A, 2,3,6,9-Tetrahydro-6-methoxy-3-methyl-2,9-dioxothiazolo[5,4-f]quinoline-8-carboxylic acid], for which, in data set [14] (rat, urine, after 24 hours, read-out: Recovery rates in the urine), the dose excreted at 24 h turned out to be 2%. Moreover, the “excretion in the urine, times faster than Compound (D)” value in data set [14] is given as “about 7 times”. Besides, in data set [14] (in words), the “urinary concentration compared with Compound (D)” value is on record as “superior to Compound (D)”. Further, the “urinary recovery rate compared with Compound (D)” value in data set [14] (in words) is “superior to Compound (D)”. For the same molecule, in data set [15], the “time at which serum levels reached a maximum” value was “within an hour”. Besides, in data set [15] (times higher than Compound (D)), the “peak serum value relative to Compound (D)” value is recorded as “about 12 times”. The ED50 is > 20 mg/kg in [16], 14 mg/kg in [17] and 50 mg/kg in data set [18]. For the same molecule, in [17] (oral, comparison in words), the “effectiveness in protecting mice against P. Mirabilis GN 2425, compared with Compound (D)” value was “more effective than Compound (D)”. The “effectiveness in protecting mice against E. Coli No. 34, compared with Compound (D)” value in [18] (oral, comparison in words) is listed as “more effective than Compound (D)”. In addition, the MIC in data set [3] (setting [26]) worked out at 0.1 µg/mL (≈ 0.326 µM); in data set [4] (setting [27]) it was 0.2 µg/mL (≈ 0.653 µM); in data set [6] (setting [28]), 0.2 µg/mL (≈ 0.653 µM); in data set [7] (setting [29]), 25 µg/mL (≈ 81.6 µM); in [9], 0.5 µg/mL (≈ 1.63 µM); in data set [10] (setting [30]), 0.39 µg/mL (≈ 1.27 µM). The MIC in [11] (setting [31]) worked out at 12.5 µg/mL (≈ 40.8 µM). Further, in [19], the macroscopic examinations entry is reported as “no abnormal findings were observed”. Also, in data set [19], the symptoms entry was “No significant symptoms were observed”. In addition, the “urinalysis (pH, protein, glucose, ketone bodies and occult blood)” value in data set [19] is reported as “no abnormality was found”. Further, the body weight result in data set [19] (at all doses) is listed as “did not decrease”. In [19] (at all doses), the body weight-gain result is listed as “slightly decreased”. For the same molecule, the “activity in vitro compared with Compound (D)” value in data set [13] (comparison in words) is reported as “as active as Compound (D)”. In data set [13] (comparison with nalidixic acid in words), the “activity in vitro compared with Compound (E)” value is recorded as “more active than Compound (E)”. The “antibacterial activities on gram-negative bacteria” value in data set [13] is on record as “showed antibacterial activities on gram-negative bacteria”.

For the molecule `CCn1cc(C(=O)O)c(=O)c2c3sc(=O)n(C)c3ccc21` [Compound D, 6-ethyl-2,3,6,9-tetrahydro-3-methyl-2,9-dioxothiazolo[5,4-f]quinoline-8-carboxylic acid, reference compound], the “antibacterial activity in vitro” value in data set [20] was “noticeable antibacterial activity in vitro”. Besides, the “antibacterial activity in vivo” value in [21] was “does not possess a sufficient antibacterial activity in vivo”. The “activities on the organism tested in vivo” value in data set [22] was “did not show activities on the organism tested”. For the same molecule, the values for the ED50 in data set [16], in data set [17] and in [18] were > 40 mg/kg, > 40 mg/kg and > 100 mg/kg, respectively. Further, the MIC was 0.1 µg/mL (≈ 0.329 µM) in data set [3] (setting [26]); 0.2 µg/mL (≈ 0.657 µM) in data set [4] (setting [27]); 0.2 µg/mL (≈ 0.657 µM) in data set [6] (setting [28]); > 200 µg/mL in [7] (setting [29]); 0.25 µg/mL (≈ 0.821 µM) in data set [9]; 0.78 µg/mL (≈ 2.56 µM) in data set [10] (setting [30]). Further, in data set [11] (setting [31]), the MIC came to 12.5 µg/mL (≈ 41.1 µM).

Turning to `CCn1cc(C(=O)O)c(=O)c2ccc(C)nc21` [E, nalidixic acid, reference compound], the MIC in data set [3] (Proteus vulgaris, HX19, read-out: In vitro Antibacterial Activities) was 0.78 µg/mL (≈ 3.36 µM); in data set [4] (Escherichia coli), 3.13 µg/mL (≈ 13.5 µM); in [6] (Klebsiella pneumoniae, PCI602, read-out: In vitro Antibacterial Activities), 3.13 µg/mL (≈ 13.5 µM); in data set [7] (Pseudomonas aeruginosa, 104, read-out: In vitro Antibacterial Activities), > 200 µg/mL; in [10] (Proteus mirabilis, GN2425, read-out: In vitro Antibacterial Activities), 6.25 µg/mL (≈ 26.9 µM); in data set [11] (Staphylococcus aureus, 209P), 100 µg/mL (≈ 431 µM).

As for `CCOC(=O)c1c[n+]([O-])c2ccc3nc(Cl)sc3c2c1Cl` [F, ethyl 2,9-dichlorothiazolo[5,4-f]quinoline-8-carboxylate-6-oxide], in data set [23] (Sabourand agar, result in words), the “inhibitory activity on the fungi tested” value is recorded as “exhibited inhibitory activity on the fungi tested”. The “antifungal activity in vitro relative to griseofulvin” value in [23] (in vitro, comparison in words) was “twice as active than griseofulvin”. In addition, the results for the MIC in data set [24] and in [25] were 0.78 µg/mL (≈ 2.27 µM) and 25 µg/mL (≈ 72.8 µM), respectively.

In general, ED50 refers to the midpoint of the dose-response relation. Low values mean an effect at a small dose, high ones a need for a large dose.
